Measured values: US5021595A, “Transition metal catalyst composition for olefin polymerization” (Exxon Chemical Patents Inc., priority 1990, dated 1991)
Read-outs that look alike come from different tables or passages of the source.

Legend:
[1] = Preparation of polyethylene (batch ethylene polymerization); conditions: 1 mmole catalyst, 5 mmoles ethyl aluminum sesquichloride, room temperature, 0.5 hrs
Protocol: In a 1.5 liter reaction vessel was introduced 800 ml of hexane. This was maintained at room temperature and ethylene was slowly bubbled in at the rate of 34 gms/hour. When the solution was saturated, 5 mmoles of Ethyl aluminum sesquichloride was added as a solution in hexane followed by a solution of 1 mmole of the transition metal catalyst compound dissolved in toluene. […] The polymerization was maintained for 0.5 hrs with constant monomer addition. At the end of the polymerization period, the polymerization was terminated by the addition of 5 ml of isopropanol and the polymer was recovered by filtration and dried to constant weight.

[2] = Catalyst lifetime in isothermal tubular reactor polymerization, first order decay; conditions: isothermal 40° C.
[3] = Ethylene/propylene copolymerization in tubular reactor (polymerization rate); conditions: for Effectiveness in polymerizing ethylene/propylene compared to VCl4 (in words): tubular reactor process; for Polymerization Rate (polymer made in the reactor): tubular reactor, 15° C. at the initial zone, adiabatic, premix 8 sec at 10° C. (Example 12) or -10° C. (all others)
From the text: The polymerization results are shown in Table II and are expressed/as polymer made in the reactor in gms per hour.

[4] = Copolymerization of norbornene type monomers with ethylene/propylene in CFSTR; conditions: 30° C.
Protocol: Polymerization experiments were conducted in a continuous flow stirred tank reactor process wherein norbornene type monomers such as norbornene and 5-ethylidene-2-norbornene (ENB) are copolymerized employing the invention catalysts. The polymerization was conducted under the following conditions:
Ethyl aluminum sesquichloride:
Tetraethoxysilane at .208 gms/hr

[5] = Ethylene/propylene copolymerization in continuous flow stirred tank reactor (catalyst productivity); conditions: CFSTR, residence time 11 minutes
Protocol: A series of copolymers based on ethylene and propylene monomers were prepared in a continuous flow stirred tank reactor using the vanadium
The polymerization results as set forth in Table 1 are expressed as polymer made in the reactor in gms per hour.

[6] = Conversion of vanadium component into active catalyst (tubular reactor, premixing); conditions: premixing residence time 8 seconds, temperature varied to maximize conversion
Protocol: The vanadium component attains a maximum conversion to the active catalyst under certain premixing conditions determined by the concentrations of the vanadium and aluminum components and the residence time in the premixing zone and the reaction temperature. The experiment was conducted with identical concentrations of vanadium compound and the same molar ratio of aluminum to vanadium. The premixing experiment was run for the residence time of 8 seconds and the reaction temperature was varied to maximize the conversion of the vanadium component into the active catalyst.

[7] = tubular reactor systems, pre-mixing and aging, in some cases; cited from earlier work
[8] = tubular reactor
[9] = Condition A: no norbornene monomer
[10] = Condition B: Norbornene at 10.3 gms/hr
[11] = Condition C: Norbornene at 20.6 gms/hr
[12] = Condition D: ENB at 12.4 gms/hr + Tetraethoxysilane at .208 gms/hr

| Compound | Wt of PE [1] [GMS] | Half-Life at 40° C. [2] [s] | Effectiveness in polymerizing ethylene/propylene compared to VCl4 (in words) [3] | Polymerization Rate (polymer made in the reactor) [3] [gms per hour] | Polymerization rate [4, 9] [gms/hr] | Polymerization rate [4, 10] [gms/hr] | Polymerization rate [4, 11] [gms/hr] | Polymerization rate [4, 12] [gms/hr] | Catalyst Productivity at Specified Temperature (polymer made in the reactor) ([5]; 30° C.) [gms per hour] | Catalyst Productivity at Specified Temperature (polymer made in the reactor) ([5]; 45° C.) [gms per hour] | Catalyst Productivity at Specified Temperature (polymer made in the reactor) ([5]; 60° C.) [gms per hour] | Catalyst Conv % (percentage of vanadium converted to the active catalyst at maximum) [6] [%] | Deactivation of catalyst formed, based on the moles of the initial vanadium compound added [7] | Half-Life at 40° C. [8] [s] |
| --- | --- | --- | --- | --- | --- | --- | --- | --- | --- | --- | --- | --- | --- | --- |
| Bis hexanoate mono chloro titanium [Catalyst Code 5] | 13.5 | – | – | – | – | – | – | – | – | – | – | – | – | – |
| CC(=O)C=C(C)[O-].CCCCCC(=O)[O-].[Cl-].[V+3] [Catalyst Code 3, Hexanoate (2,4-Pentanedionate) mono chloro vanadium (+3)] | 15.0 | 13.8 | significantly more effective than VCL4 in polymerizing ethylene/propylene monomers | 891 | 165 | 178 | 164 | 165 | 87 | 64 | 51 | 75 | – | – |
| Tetra chloro vanadium (+4) [Catalyst Code 0, reference compound] | – | 2.5 | – | – | – | – | – | – | – | – | – | – | up to 55 mole percent | – |
| CC(=O)C=C(C)[O][V]([Cl])[O]C(C)=CC(C)=O [Catalyst Code 2, Bis (2,4-pentanedionate) mono chloro vanadium (+3)] | 14.3 | – | significantly more effective than VCL4 in polymerizing ethylene/propylene monomers | 878 | 169 | 164 | 159 | 152 | 92 | 64 | 51 | 72 | – | 11.6 |
| Hexanoate Salicaldehyde mono chloro vanadium (+3) [Catalyst Code 4] | 15.0 | 10.0 | – | – | – | – | – | – | 90 | 73 | 56 | – | – | – |
| Bis hexanoate mono chloro vanadium (+3) [Catalyst Code 1] | 13.9 | 19.8 | significantly more effective than VCL4 in polymerizing ethylene/propylene monomers | 832 | 171 | 171 | 168 | 160 | 95 | 68 | 58 | 67 | – | – |
